Laboratory results published in PubChem BioAssay (NCI).
Where “and” joins values, the source holds several entries; their conditions need not be identical. Identical values can stand only once.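 Briefly, cells in 96-well plates were exposed to five compound concentrations for 48 h, and endpoints were estimated by linear interpolation. GI50 is the concentration that inhibits growth by half. TGI marks complete inhibition of growth.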

What was measured:
Assay in all cases: DTP human tumour cell line panel, 48 h
[1] = system: ACHN renal
[2] = system: MOLT-4 leukemia
[3] = system: NCI/ADR-RES ovarian
[4] = system: M14 melanoma
[5] = system: DU-145 prostate
[6] = system: NCI-H23 lung
[7] = system: COLO 205 colon
[8] = system: OVCAR-8 ovarian
[9] = system: BT-549 breast
[10] = system: LOX IMVI melanoma

| SMILES | GI50 [1] | TGI [1] | GI50 [2] [nM] | TGI [2] [µM] | GI50 [3] [nM] | TGI [3] | GI50 [4] [nM] | TGI [4] | GI50 [5] [µM] | TGI [5] | GI50 [6] [nM] | TGI [6] | GI50 [7] | TGI [7] | GI50 [8] [nM] | TGI [8] | GI50 [9] [nM] | TGI [9] [µM] | GI50 [10] | TGI [10] |
| --- | --- | --- | --- | --- | --- | --- | --- | --- | --- | --- | --- | --- | --- | --- | --- | --- | --- | --- | --- | --- |
| CN(C)c1ccc(/C=N/S(=O)(=O)c2ccc(-n3c(-c4ccccc4)nc4c(Br)cc(Br)cc4c3=O)cc2)cc1 | 40400 nM | > 100 µM | 33300 | > 80.5 | 44600 | > 100 µM | 31100 | > 93.5 µM | 32.6 | > 90.2 µM | 37700 | 92.6 µM | 44900 nM | > 100 µM | 34200 | > 100 µM | 30600 | > 68.8 | 46100 nM | > 100 µM |
| Cc1[nH]c2cc(F)ccc2c1-c1nc2c3cccnc3c3ncccc3c2[nH]1 | 254 nM | 1.45 µM | 170 | 0.642 | 550 | 5.37 µM | 187 | 0.667 µM | 0.191 | 1.8 µM | 343 | 1.89 µM | 178 nM | 1.26 µM | 216 | 1.22 µM | 215 | 1.57 | 47.2 nM | 0.697 µM |
| CCCCNc1ccc(Nc2ccccc2)cc1 | 16700 nM | > 100 µM | 3230 | 25.9 | 21500 | > 100 µM | 6300 | 31.3 µM | 7.87 | > 100 µM | 3150 | 43 µM | 2770 nM | 11.7 µM |  |  | 2840 | 21.6 | 5850 nM | 21.5 µM |
| CC1(C)Cc2c(Br)c(Br)c(Br)c(OCC(O)CN3CCN(c4ccccn4)CC3)c2O1 (stereo not drawn) | 12500 nM | 91.4 µM | 3190 | 19 | 16300 | 42.6 µM | 13300 | 29.7 µM | 14.4 | 30.6 µM | 13400 | 32 µM | 15000 nM | 34.4 µM | 20900 | 45.3 µM | 11600 | 26 | 9220 nM | 21.4 µM |
| COc1cnc2c(c1)C(=O)c1c-2n(CCCN2CCC(O)CC2)c(=O)c2cc(Cl)ccc12 | 90.3 nM | 1.5 µM | 74.5 | 5.34 | 167 | 2.31 µM | 91.4 | 1.86 µM | 0.279 | 1.71 µM | 248 | 1.74 µM | 661 nM | 2.64 µM | 665 | 3.53 µM | 9900 | 25.9 | 75.8 nM | 1.46 µM |
| COc1cc2oc3c(c(=O)c2c(O)c1/C=C/C(C)C)C(C=C(C)C)Oc1cc(O)ccc1-3 (stereo not drawn) |  | 29.4 µM |  | 25.8 |  | 31.1 µM |  | 27.3 µM |  | 30.2 µM |  | 30.5 µM |  | 29.4 µM |  | 30.8 µM |  | 23.4 |  | 27.7 µM |
| O=[N+]([O-])c1cc2no[n+]([O-])c2cc1N1CCCCC1 |  | 7.21 µM |  | 4.95 |  | > 20.8 µM |  | 7.19 µM |  | 6.18 µM |  | 43.4 µM |  | 30.4 µM |  | 5.74 µM |  | 45.2 |  | 4.81 µM |
| Cc1cccc2c3c(sc12)C(c1ccc(F)cc1)C(C#N)=C(N)O3 (stereo not drawn) | 65.8 nM | 13.2 µM | 137 | 26.6 | 44.6 | 4.14 µM | 97.6 | 11.7 µM | 0.151 | 13 µM | 127 | 12 µM | 280 nM | 1.29 µM | 128 | 14.2 µM | 297 | 3.18 | 60.8 nM | 5.2 µM |
| CC1=Nc2c([nH]c(=S)[nH]c2=O)NC(c2c(Cl)cccc2Cl)C1 (stereo not drawn) |  | 11 µM |  | 5.43 |  | 0.412 µM |  | 6.47 µM |  | 3.51 µM |  | 7.4 µM |  | 4.34 µM |  | 1.85 µM |  | 2.64 |  | 1.84 µM |
| COc1cc(Cl)cc(-c2nn(-c3cccc(NC(=O)Nc4ccc(Cl)c(Cl)c4)c3)cc2-c2ccncc2)c1 | 3230 nM | > 100 µM | 1690 | 6.13 | 2340 | 24.9 µM | 2520 | 10.9 µM | 3.85 | > 100 µM | 2620 | 9.04 µM | 1710 nM | 3.31 µM | 2300 | 11.2 µM | 2620 | 8.28 | 2910 nM | 12.4 µM |
| Cc1nc2cc(Nc3nc(Nc4ccc(F)cc4)nc(N4CCOCC4)n3)ccc2n1Cc1ccccc1 | 3050 nM | 13.1 µM | 2700 | 8.04 | 5220 | 45.4 µM | 3160 | 8.59 µM | 4.81 | 18.8 µM | 6430 | 30.6 µM | 1840 nM | 3.33 µM | 4340 | 23.6 µM | 8190 | 25.7 | 4300 nM | 20.7 µM |
| COCCOCCOCc1n(Cc2ccc3ccccc3n2)c2ccccc2[n+]1Cc1ccc2ccccc2n1 | 13700 nM | 81.7 µM | 1880 | 13 | > 100000 | > 100 µM | 1560 | 12.8 µM | 2.67 | 41.8 µM | 657 | 12.2 µM | 284 nM | 1.5 µM | 1270 | 12.6 µM | 369 | 4.42 | 1140 nM | 10.4 µM |
| COc1ccc2c(c1)-c1nn(CCCN(C)C)c3ccc([N+](=O)[O-])c(c13)N2 | 102 nM and 260 nM | 1.25 µM and 3.69 µM |  |  |  | 2.93 µM and 1.42 µM |  | 4.7 µM and 7 µM |  | 4.72 µM and 2.86 µM |  | 2.08 µM and 2.3 µM | 96.2 nM and 276 nM | 0.913 µM and 3.75 µM |  | 4.19 µM and 5.06 µM |  | 7.19 | 101 nM and 345 nM | 0.957 µM and 4.08 µM |
| CN1CCN(c2nc(-c3csc(-c4cccs4)n3)cc3ccccc23)CC1 | 1800 nM | 3.25 µM | 2030 | 4.15 | 1930 | 3.92 µM | 1870 | 3.71 µM | 1.8 | 3.34 µM | 1930 | 3.92 µM |  |  | 1890 | 3.97 µM | 1820 | 3.94 | 1780 nM | 3.22 µM |
